# Assay results reported in US20060034819A1, “Proteins and methods useful for assessing risk of cardiovascular disease” (UNITHER PHARMA, INC., priority 2002, published 2006).
# Columns and labels:
# NOS = conditions: LNMMA compared with ADMA; cited from earlier work
# mutant DDAH = experiment: fluorescence polarization immunoassay (FPIA) with ADMA-OG; assay type: binding, Human
# Source text: Fluorescence Polarization Immunassay (FPIA) is another homogeneous solution phase immunoassay for small molecule analytes, which has the unique advantage that a positive signal is generated by competition. FPIA detects the difference between mutant DDAH-bound and free fluorescently-labelled ligand as the polarization of emitted light when excited by plane-polarized light. Small molecule ligands tumble so fast during the excited state that emitted light is nearly isotropic, whereas, the larger mutant DDAH-bound ligand hardly rotates at all during the excited state and therefore emits highly polarized or anisotropic light. Analyte is measured by its ability to compete with label for binding to mutant DDAH, and thereby lower the polarization of emitted light, and increase its intensity at certain angles relative to the incident light. […] Free ADMA is measured as a function of its concentration-dependent ability to compete with fluorescein-ADMA for binding to mutant DDAH thereby reducing polarized emission.
# ADMA is conjugated through its alpha-amino group to Oregon Green (OG) and purified by reversed phase HPLC. […] At 10^−10 M ADMA-OG, polarization is determined after equilibration with various concentrations of mutant DDAH ranging from 10^−10 M to 10^−6 M. The minimum value should be equivalent to that of the free conjugate. […]
# DDAH = DDAH as an ADMA sensor; binding affinity low; cited from earlier work
structure (smiles),measurement,setting,value
"CN(C)C(=N)NCCCC(N)C(=O)O (centres unmarked) [ADMA, asymmetric N,N-dimethyl arginine]",potency as inhibitors of NOS,NOS,equipotent
"CNC(=N)NCCC[C@H](N)C(=O)O [LNMMA, L,N-monomethylarginine]",potency as inhibitors of NOS,NOS,equipotent
"CN=C(NC)NCCC[C@H](N)C(=O)O [SDMA, symmetric dimethylarginine]",inhibition of polarization,mutant DDAH; concentration equivalent to 10^−7 M free ADMA,no detectable inhibition
same,Km,DDAH,> 100 µM
N=C(N)NCCC[C@H](N)C(=O)O [arginine],inhibition of polarization,mutant DDAH; 100-fold higher concentration than 10^−7 M free ADMA,no detectable inhibition
